Activity calls are given as the source filed them.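 Rule for the calls: active = AC50 no more than ten times the top concentration tested, that is within one log above it; inconclusive = flat curve fit with activity between 30% and 70%, or invalid poor fit; inactive = AC50 beyond ten times the top tested dose.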

This test has as its system S. cerevisiae Mot1-301 ts growth rescue, BacTiter-Glo ATP luminescence. Nature of the test: restored Mot1-301 yeast growth at 38.5C – whole organism, S. cerevisiae, Mot1-301 ts mutant, luminescence, dose retest, SUMOylation pathway inhibitor project, confirmation (AID 463204).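 Note: growth at restrictive 38.5 degrees C of Mot1-301 OY566 strain; actives raise luminescence by restoring growth of the ts mutant at high temperature.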
Turning to `COc1cc(/C=N/NC(=O)c2cccnc2)ccc1OCC(=O)N1CCOCC1`, the AC50 was > 42 µM (inactive).

Regarding `CC(=O)Nc1sc2c(c1C(c1ccc(F)cc1)N1CCOCC1)CCCC2` (stereo unspecified), the half-maximal activity concentration (AC50) was 11.8 µM.

As for `O=C(N/N=C\c1cn(-c2ccccc2)nc1-c1ccccc1)c1ccc(Br)o1`, the AC50 was > 42 µM (inactive).

Turning to `CCNCc1nc2cc(Cl)ccc2c(=O)[nH]1`, the AC50 was > 42 µM (inactive).

For the compound `O=C(COC(=O)c1ccc([N+](=O)[O-])s1)c1ccc[nH]1`, the concentration at half-maximal activity (AC50) was 21 µM.

Consider `O=C(c1cn(-c2ccccc2)nc1-c1cccs1)N1CCOCC1`, for which the AC50 is > 42 µM (inactive).

`COc1ccccc1N1CCN(C(=O)c2ccc(-c3ccccc3)cc2)CC1`: the AC50 is > 42 µM (inactive).

With `Cc1ccc(NC(=O)Cn2nc(C)c3ccccc3c2=O)cc1`, the AC50 is > 42 µM (inactive).

For `Cc1nn(C)c(C)c1/C=N/NC(=O)C(C)(C)Oc1ccc(Cl)cc1`, the AC50 is > 42 µM (inactive).

As for `COc1ccc(C)cc1NC(=O)C12CCC(C)(C(=O)O1)C2(C)C` (stereo unspecified), the AC50 is > 42 µM (inactive).

Turning to `Cc1cc(S(=O)(=O)NCC(C)C)ccc1OCC(=O)N1CCOCC1`, the AC50 is > 42 µM (inactive).

On to `COc1ccc(CN2CCCCCC2)cc1`, for which the AC50 is > 42 µM (inactive).

For the compound `COc1ccccc1CNc1ncnc2c1nnn2Cc1ccccc1`, the AC50 is 40.1 µM.

For `Cc1ccc(CSCCNC(=O)c2ccc(NS(C)(=O)=O)cc2)cc1`, the AC50 was > 42 µM (inactive).

Regarding `COc1ccc(S(=O)(=O)N2CCN(c3ccc(F)cc3)CC2)cc1C(=O)N1CCOCC1`, the AC50 is > 42 µM (inactive).

On to `O=C(c1ccccc1F)N1CCN=C1SCc1cccnc1`, for which the AC50 was > 42 µM (inactive).

In the case of `CCCS(=O)(=O)N1CCC(C(=O)N2CCc3ccccc3C2)CC1`, the AC50 is > 42 µM (inactive).

Regarding `O=C(C1CCC(CNc2c(N3CCCCC3)c(=O)c2=O)CC1)N1CCN(C2CCCCC2)CC1` (stereo unspecified), the AC50 was > 42 µM (inactive).

`COc1ccc2c(c1)[C@H]1[C@H](CO2)[C@H](c2ccccc2)[C@]2(C)C(=O)Nc3ccc(F)cc3C(=O)N12`: the AC50 was 5.38 µM.

`N/C(=N\N=C\c1ccc(O)cc1)c1nonc1N`: the AC50 was > 42 µM (inactive).

For the compound `CCCN1C(=O)c2ccccc2NC1c1ccc(C)cc1` (stereo unspecified), the AC50 is > 42 µM (inactive).

`CN1C(=O)/C(=C/c2ccc(OCc3ccccc3F)cc2)NC1=S`: the AC50 was > 42 µM (inactive).

As to `CC1(OC(=O)CCc2ccccc2)C(=O)C=C2C=C(c3ccc(C#N)cc3)N(C3CCCC3)C=C2C1=O` (stereo unspecified), the AC50 is > 42 µM (inactive).

Regarding `COc1ccccc1NC(=S)N(Cc1ccccc1)Cc1cccs1`, the AC50 is > 42 µM (inactive).

For the compound `O=C(N/N=C/C(Br)=C/c1ccccc1)c1cccnc1`, the AC50 is 21.5 µM.

On to `CC/C(=N\Nc1ccc([N+](=O)[O-])cc1)c1ccccc1`, for which the AC50 was > 42 µM (inactive).

For the compound `Cn1c(=O)c2c(ncn2CC(=O)OCC(=O)Nc2ccc(Cl)cc2)n(C)c1=O`, the AC50 is > 42 µM (inactive).

`O=c1c2ccccc2nc(COc2ccccc2)n1/N=C/c1cn[nH]c1-c1ccccc1`: the AC50 was > 42 µM (inactive).

As for `CCCc1cc(=S)n2c([nH]c3ccccc32)c1C#N`, the AC50 is > 42 µM (inactive).

As for `O=C(CSc1nnc(NC(=O)CN2CCOCC2)s1)Nc1ccccc1`, the AC50 is > 42 µM (inactive).

For the compound `CCN1CCN(C(=O)c2ccc3nc(-c4ccccc4)c(-c4ccccc4)nc3c2)CC1`, the AC50 was > 42 µM (inactive).

For the compound `Oc1cccc2ccc(/C=C/c3ccccc3Br)nc12`, the AC50 was > 42 µM (inactive).

Take `C=CCNC(=O)c1onc(CSc2cccc(C)c2)c1C(=O)O`: the AC50 was > 42 µM (inactive).

As to `CC1(C)NC(=O)N(CCCOc2ccccc2Br)C1=O`, the AC50 was > 42 µM (inactive).

With `Cc1cc(F)ccc1S(=O)(=O)Nc1ccccc1C(=O)Nc1ccc2[nH]c(=O)[nH]c2c1`, the AC50 is > 42 µM (inactive).

Turning to `Cc1ccc(S(=O)(=O)n2cccc2C)cc1`, the AC50 was > 42 µM (inactive).

In general, AC50 refers to the concentration at which the activity in the assay is half-maximal.

(Values after PubChem BioAssay AID463204 (Broad Institute, 2010).)
